# Laboratory results taken from ChEMBL document CHEMBL1201862, “PubChem BioAssay data set” (2004).
#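 1) Cells in 96-well plates. 2) Compound, 48 h, 5 concentrations. 3) Linear interpolation between surrounding doses. 4) Unreached endpoint = highest concentration. At the GI50, growth is halved.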 Active and inactive are the calls of the source. No stated cut-off is given here; in the data, active = GI50 up to about 1.1 µM and inactive = higher.
# How the values were obtained:
# Assay in all cases: NCI tumour cell line growth inhibition, 48 h
# [1] = tested on: A498
# [2] = tested on: COLO 205
# [3] = tested on: DU-145
# [4] = tested on: HCT-15
# [5] = tested on: HT-29
# [6] = tested on: Hs-578T
# [7] = tested on: K562
# [8] = tested on: KM12
# [9] = tested on: MCF7
# [10] = tested on: MDA-MB-231
# [11] = tested on: NCI-H226
# [12] = tested on: OVCAR-5
# [13] = tested on: PC-3
# [14] = tested on: SK-MEL-28
# [15] = tested on: SNB-19
# [16] = tested on: SR
# [17] = tested on: SW-620
# [18] = tested on: TK-10
# [19] = tested on: UO-31
# [20] = tested on: RXF 393
SMILES,GI50 [1],GI50 [2],GI50 [3],GI50 [4],GI50 [5],GI50 [6],GI50 [7],GI50 [8],GI50 [9],GI50 [10],GI50 [11],GI50 [12],GI50 [13],GI50 [14],GI50 [15],GI50 [16],GI50 [17],GI50 [18],GI50 [19],GI50 [20]
O=C(Cc1ccccc1)N/N=C(/CCN1CCCC1)CC(c1ccccc1)c1c(O)c2ccccc2oc1=O (configuration not stated),28 µM (inactive),23.9 µM (inactive),> 100 µM (inactive),72.4 µM,75.9 µM (inactive),76.7 µM (inactive),> 100 µM (inactive),> 100 µM (inactive),22 µM (inactive),26 µM (inactive),> 100 µM (inactive),> 100 µM (inactive),> 100 µM (inactive),> 100 µM (inactive),> 100 µM (inactive),21.4 µM (inactive),> 100 µM (inactive),> 100 µM (inactive),> 100 µM (inactive),
C/C(=N\Nc1nc2ccccc2s1)c1ccncn1,> 100 µM (inactive),0.126 µM (active),3.54 µM (inactive),0.661 µM,0.0311 µM (active),6.03 µM (inactive),0.973 µM (active),1.42 µM (inactive),0.348 µM (active),0.499 µM (active),0.14 µM (active),3.13 µM (inactive),2.06 µM (inactive),2 µM (inactive),3.02 µM (inactive),0.641 µM (active),0.229 µM (active),,0.387 µM (active),7.74 µM (inactive)
Cc1nc2ccccc2c(=O)n1NC(=O)c1ccccc1[N+](=O)[O-],> 100 µM (inactive),,> 100 µM (inactive),> 100 µM,> 100 µM (inactive),33.9 µM (inactive),> 100 µM (inactive),> 100 µM (inactive),> 100 µM (inactive),> 100 µM (inactive),> 100 µM (inactive),> 100 µM (inactive),> 100 µM (inactive),> 100 µM (inactive),> 100 µM (inactive),> 100 µM (inactive),> 100 µM (inactive),> 100 µM (inactive),> 100 µM (inactive),> 10 µM (inactive)
O=c1c2cccnc2[nH]c2ccc3scnc3c12,7.62 µM (inactive),5.12 µM (inactive),> 10 µM (inactive),4.92 µM,4.72 µM (inactive),> 10 µM (inactive),,6.7 µM (inactive),> 10 µM (inactive),> 10 µM (inactive),5.97 µM (inactive),> 10 µM (inactive),> 10 µM (inactive),> 10 µM (inactive),> 10 µM (inactive),4.32 µM (inactive),> 10 µM (inactive),4.86 µM (inactive),,3.11 µM (inactive)
CCC(C)c1cnc(CC(C)C)c(=O)[nH]1 (configuration not stated),> 100 µM (inactive),> 100 µM (inactive),> 100 µM (inactive),> 100 µM,> 100 µM (inactive),> 100 µM (inactive),> 100 µM (inactive),> 100 µM (inactive),> 100 µM (inactive),> 100 µM (inactive),,> 100 µM (inactive),> 100 µM (inactive),> 100 µM (inactive),> 100 µM (inactive),> 100 µM (inactive),> 100 µM (inactive),> 100 µM (inactive),> 100 µM (inactive),> 100 µM (inactive)
CCN(CC(COc1ccc2c(c1)[n+]([O-])nc(N)[n+]2[O-])OC(C)=O)C(C)=O (configuration not stated),25.9 µM (inactive),32.2 µM (inactive),> 10 µM (inactive),> 100 µM,> 100 µM (inactive),51.3 µM (inactive),14.1 µM (inactive),95.5 µM (inactive),> 100 µM (inactive),> 100 µM (inactive),> 100 µM (inactive),> 100 µM (inactive),76.9 µM (inactive),> 100 µM (inactive),> 100 µM (inactive),> 100 µM (inactive),> 100 µM (inactive),> 100 µM (inactive),72.3 µM (inactive),
O=C(c1ccco1)N1CCN(C(=O)c2ccco2)C1=S,,6.81 µM (inactive),2.61 µM (inactive),6.24 µM,8.05 µM (inactive),20.7 µM (inactive),1.87 µM (inactive),3.93 µM (inactive),2.99 µM (inactive),11.6 µM (inactive),28.7 µM (inactive),20.3 µM (inactive),4.78 µM (inactive),5.87 µM (inactive),24.4 µM (inactive),1.79 µM (inactive),5.66 µM (inactive),6.31 µM (inactive),3.68 µM (inactive),2.88 µM (inactive)
